What was measured:
[1] = test system: R. rhodochrous “CIBA” (NCIMB 41164); assay: Relative nitrile hydratase activity after cultivation of R. rhodochrous "CIBA" with different carbon sources; type: cell-based, Rhodococcus rhodochrous; conditions: 10 g/l, 64 h
Method: In context with the present invention, activity of an nitrile hydratase in the sense of the present invention can be determined as follows: First reacting 100 μl of a cell suspension, cell lysate, dissolved enzyme powder or any other preparation containing the supposed nitrile hydratase with 875 μl of an 50 mM potassium phosphate buffer and 25 μl of acrylonitrile at 25° C. on an eppendorf tube shaker at 1,000 rpm for 10 minutes. After 10 minutes of reaction time, samples are drawn and immediately quenched by adding the same volume of 1.4% hydrochloric acid. After mixing of the sample, cells are removed by centrifugation for 1 minute at 10,000 rpm and the amount of acrylamide formed is determined by analyzing the clear supernatant by HPLC. The concentration of acrylamide shall be between 0.25 and 1.25 mmol/l—if necessary, the sample has to be diluted accordingly and the conversion has to be repeated. The enzyme activity is deduced from the concentration of acrylamide by dividing the acrylamide concentration derived from HPLC analysis by the reaction time, which has been 10 minutes and by multiplying this value with the dilution factor between HPLC sample and original sample. […]) and/or to the nucleotide sequence of SEQ ID NO: 3 (beta-subunit of nitrile hydratase of R. rhodochrous: […]), provided that the polypeptide encoded by said polynucleotide is capable of catalyzing hydration of acrylonitrile to acrylamide (i.e. has nitrile hydratase activity) as described and exemplified herein. […] VIV) and/or to the amino acid sequence of SEQ ID NO: 4 (beta-subunit of nitrile hydratase of R. rhodochrous: […]), provided that said polypeptide is capable of catalyzing hydration of acrylonitrile to acrylamide as described and exemplified herein.
Different sugar/organic acid ratios were evaluated for different strains of Rhodococcus (R. rhodochrous “CIBA” (NCIMB 41164) and R. rhodochrous “J1” (FERM BP-1478)), in a microfermentation system.
The basic cultivation medium contained yeast extract (Biospringer) (1.25 g/l), KH2PO4 (10 g/l), K2HPO4 (10 g/l), (NH4)2SO4 (1 g/l), MgSO4*7H2O (0.375 g/l), CaCl2*2H2O (25 mg/l), Trace element solution (2.5 g/l) (see below), Co(NO3)2 (31.2 mg/l), anti-foam P2000 (BASF) (62.5 mg/l), urea (7 g/l), and ammonium glutamate (2.5 g/l) in H2O.
Trace Element Solution: Citric acid mono hydrate (40 g/l), ZnSO4*7H2O (11 g/l), (NH4)2Fe(SO4)2*6H2O (8.5 g/l), MnSO4*H2O (3 g/l), and CuSO4*5H2O (0.8 g/l) in H2O.
(§1) The medium was then supplemented with 10 g/l of carbon source (saccharide, organic acid or mixture of both as indicated in the Tables below). pH was adjusted to 6.6 using H3PO4 or NaOH. The medium was inoculated directly from cryo stocks to OD 0.05 (measured at 600 nm). Cultivation was carried out at 37° C. for 64 h at 1,100 rpm in a BioLector micro fermentation system (M2P Labs, Baesweiler, Germany) using 48-well flower plates with a working volume of 1.5 ml. After cultivation, samples were drawn, quenched with hydrochloric acid and nitrile hydratase activity was determined as described in Example 2.
Nitrile hydratase activities achieved with the saccharide as sole carbon source were set to 100%.

[2] = test system: R. rhodochrous “J1” (FERM BP-1478); assay: Relative nitrile hydratase activity after cultivation of R. rhodochrous "J1" with different carbon sources; type: cell-based, Rhodococcus rhodochrous; conditions: 10 g/l, 64 h
Method: In context with the present invention, activity of an nitrile hydratase in the sense of the present invention can be determined as follows: First reacting 100 μl of a cell suspension, cell lysate, dissolved enzyme powder or any other preparation containing the supposed nitrile hydratase with 875 μl of an 50 mM potassium phosphate buffer and 25 μl of acrylonitrile at 25° C. on an eppendorf tube shaker at 1,000 rpm for 10 minutes. After 10 minutes of reaction time, samples are drawn and immediately quenched by adding the same volume of 1.4% hydrochloric acid. After mixing of the sample, cells are removed by centrifugation for 1 minute at 10,000 rpm and the amount of acrylamide formed is determined by analyzing the clear supernatant by HPLC. The concentration of acrylamide shall be between 0.25 and 1.25 mmol/l—if necessary, the sample has to be diluted accordingly and the conversion has to be repeated. The enzyme activity is deduced from the concentration of acrylamide by dividing the acrylamide concentration derived from HPLC analysis by the reaction time, which has been 10 minutes and by multiplying this value with the dilution factor between HPLC sample and original sample. […]
Different sugar/organic acid ratios were evaluated for different strains of Rhodococcus (R. rhodochrous “CIBA” (NCIMB 41164) and R. rhodochrous “J1” (FERM BP-1478)), in a microfermentation system. […]
as §1, with “Cultivation was carried out at 37° C. for 64 h at 1,100 rpm in a BioLector micro fermentation system (M2P Labs, Baesweiler, Germany) using 48-well flower plates with a working volume of 1.5 ml.” left out, “2. […]” for “2.”

[3] = Only acid as carbon source, 37° C., fructose as sole carbon source = 100%
[4] = Only acid as carbon source, 37° C., glucose as sole carbon source = 100%
[5] = Only acid as carbon source, 37° C., mannose as sole carbon source = 100%
[6] = Only acid as carbon source, 37° C., ribose as sole carbon source = 100%
[7] = Only saccharide as carbon source, set to 100%

SMILES | relative nitrile hydratase activity [1, 3] [%] | relative nitrile hydratase activity [1, 4] [%] | relative nitrile hydratase activity [1, 5] [%] | relative nitrile hydratase activity [1, 6] [%] | relative nitrile hydratase activity [1, 7] [%] | relative nitrile hydratase activity [2, 7] [%] | relative nitrile hydratase activity [2, 3] [%] | relative nitrile hydratase activity [2, 4] [%]
O=C(O)CC(O)(CC(=O)O)C(=O)O [Citric, citric acid] | 32 | 164 | 1315 | 1409 | – | – | – | –
O=C(O)CC(O)C(=O)O (stereo not drawn) [Malic, malic acid] | 39 | 197 | 1579 | 1693 | – | – | – | –
O=C(O)CCC(=O)O [Succinic, succinic acid] | 30 | 150 | 1204 | 1291 | – | – | – | –
O=C(O)C(O)C(O)C(=O)O (stereo not drawn) [Tartaric, tartaric acid] | 34 | 173 | 1388 | 1487 | – | – | – | –
O=C(CO)[C@@H](O)[C@H](O)[C@H](O)CO [Fructose, fructose] | – | – | – | – | 100 | 100 | – | –
O=C[C@H](O)[C@H](O)[C@H](O)CO [Ribose, ribose] | – | – | – | – | 100 | – | – | –
CC(O)C(=O)O (stereo not drawn) [Lactic, lactic acid] | – | – | – | – | – | – | 73 | 1963

Source: patent US20170260519A1, “METHOD OF CULTIVATING MICROORGANISMS HAVING NITRILE HYDRATASE ACTIVITY” (priority 2014, published 2017)
